From patent US20100272837A1, “TRADITIONAL CHINESE MEDICINAL COMPOSITIONS FOR TREATING DEPRESSION , FORMULATION THEREOF, METHOD FOR PREPARING THE SAME THEREOF” (HEBEI YILING MEDICINE RESEARCH INSTITUTE CO. LTD., priority 2006, published 2010)
Counter-ions that a name gives are not always drawn.

Experiments:
Type in all cases: in vivo, ICR mice
[1] = tested on: normal mice; assay: Analgetic effects on normal mice (hot plate method); details: 0.33 g/kg body weight, gavage 3 days; hot plate 56±0.5
Protocol: ICR female mice having a body weight of 18-22 g were stochastically divided into six groups according to the body weight. Before test, the temperature of the aqueous thermostat was controlled at 56±0.5[…]. One mouse was placed on the hot plate each time, and the time of licking postpedes was defined as the pain threshold of said mouse. […] The normal pain thresholds were measured again. The average value of two normal pain thresholds was used as the pain threshold of the mouse before administration. […] There were 22 mice in the normal control group, and there were 11 mice in each of other groups.

[2] = tested on: mice given sodium pentobarbital; assay: Rate of falling asleep caused by intraperitoneal sodium pentobarbital; details: 0.33 g/kg body weight, gavage 7 days; sodium pentobarbital 35 mg/kg ip; 11 animals
Protocol: III. […] Method: ICR mice having a body weight of 18-22 g, half male and half female, were randomly divided into five groups according to the body weight (see Table 14 for details). The animals in the groups of administration with a drug were consecutively administered for 7 days by gavage. Mice were weighed before the last administration, and administered by intraperitoneal injection with 35 mg/kg body weight sodium pentobarbital at 1 h after the last administration. The number of animals falling asleep was recorded.

[3] = tested on: mice given acetic acid; assay: Stretching caused by intraperitoneal acetic acid (stretching method); details: 0.33 g/kg body weight, gavage 3 days; 0.6% glacial acetic acid ip; during 15 minutes
From the text: Method: ICR mice having a body weight of 18-22 g, half male and half female, were randomly divided into five groups according to the body weight, including the group of 5 g/kg body weight capsules of the present invention, the group of 2.5 g/kg body weight capsules of the present invention, the group of 1.25 g/kg body weight capsules of the present invention, the aspirin group (0.33 g/kg body weigh), and the normal control group (administered with isovolumetric normal saline). There were 19 mice in the normal control group, and there were 10-11 mice in each of other groups. The animals in the groups of administration with a drug were consecutively administered for 3 days by gavage. Except the normal control group, each mouse in other groups was administered by intraperitoneal injection with 0.1 ml/10 g body weight 0.6% glacial acetic acid at 1 h after the final administration. Then the times of stretching caused by glacial acetic acid during 15 minutes after injection were recorded.

[4] = tested on: normal mice; assay: NA, DA and 5-HT in the brain tissue of normal mice (fluorophotometry); details: for 5-HT in the brain tissue of normal mice / DA in the brain tissue of normal mice / NA in the brain tissue of normal mice: gavage 25 days, 80 min after final administration; for effect on 5-HT in brain tissue of normal mice (in words) / effect on NA and DA in brain tissue of normal mice (in words): positive control, P<0.01
Protocol: Method: ICR male mice; and the groups and administration doses can be found in Table 10. The animals in the groups of administration with a drug were administered by gavage for 25 consecutive days. At 80 min after the final administration, the heads of mice were cut off and the brain tissues were taken out, frozen with dry ice and preserved at −20□. The content of noradrenaline (NA), dopamine (DA) and 5-hydroxytryptamine (5-HT) in the whole brain homogenate without cerebellum was measured respectively by means of the fluorophotometry^[2].
(§1) At the end of the test, the heads of mice were rapidly cut off and the brain tissues were immediately taken out, promptly frozen with dry ice and moved into a refrigerator having a temperature of −20□. The tissue was defreezed before homogenization. The cerebellum, medulla oblongata and olfactory bulb were removed, and then 300 mg brain tissue was weighed with a analytical balance. Then 10 times amount by volume of acidic n-butanol (prepared by saturating 100 ml re-steamed n-butanol with NaCl, and mixing with 0.85 ml strong hydrochloric acid) were added into the brain tissue for homogenization.
(§2) The brain tissue homogenate was centrifugated (2,000 rpm) for 5 min. Then 2.5 ml supernatant was taken out and placed in centrifuge tube with a plug containing 1 ml 0.1N HC1 and 5 ml n-heptane. The centrifuge tube was placed on the KS vibrator, oscillated for 5 min and centrifugated (2,500 rpm) for 5 min. 6 to ml upper organic phase was placed into the tube having a plug and containing 0.6 ml 0.033 M NaHCO3 so as to extract 5-HIAA. Then 0.5 ml and 0.4 ml were respectively taken out from the lower aqueous phase, wherein the former was used to measure NA and DA, and the latter was used to measure 5-HT.
(§3) Internal standard tube treatment: 9 ml of the acidic n-butanol homogenate was averagely divided into 3 tubes, to two of them, 40 μl mixed standard solution (respectively containing 5 μg/ml standard substances of NA, DA and 5-HT) was added.
(3) Measurement: The fluorophotometry was conducted on NA, DA and 5-HT (KUANG Peigen, ZHOU Xinfu and XU Bo, Extraction of Monoamine Neurotransmitters in Brain Tissue and Measurement of the Neurotransmitters by Means of Fluorophotometry, Academic Journal of PLA Postgraduate Medical School, 1982, 3(2) 181-185).

[5] = tested on: mice of reserpine depression model; assay: NA, DA and 5-HT in the brain tissue of reserpine mice (fluorophotometry); details: for 5-HT in the brain tissue of reserpine mice / DA in the brain tissue of reserpine mice / NA in the brain tissue of reserpine mice: gavage 25 days, reserpine 1 mg/kg ip
Protocol: The animals in the groups of administration with a drug were administered by gavage for 25 consecutive days. The normal control group and reserpine control group were administered with isovolumetric distilled water. On the 23rd day of the test, 1 mg/kg body weight of reserpine was ip administered for each group except the normal control group, and each group receiving reserpine was administered once more. At 1 hour after the last administration of reserpine, the heads of mice were cut off and the brain tissues were taken out, frozen with dry ice and preserved at −20□. The content of noradrenaline (NA), dopamine (DA) and 5-hydroxytryptamine (5-HT) in the cerebellar tissue homogenate was measured respectively by means of fluorophotometry.
as §1, §2, §3

[6] = tested on: mice of reserpine depression model; assay: “Excircle” behaviour (akinesia) of mice treated with reserpine; details: for Number of animals that have excircle behaviors at 2 h, Excircle (+) / Number of animals that have excircle behaviors at 2 h, Within circle (□) / Number of animals that have excircle behaviors at 4 h, Excircle (+) / Number of animals that have excircle behaviors at 4 h, Within circle (□) / Number of animals that have excircle behaviors at 6 h, Excircle (+) / Number of animals that have excircle behaviors at 6 h, Within circle (□): gavage 22 days, reserpine 2 mg/kg ip, 15 animals; for effect on “excircle” rate of reserpine mice (in words): P<0.05 or P<0.01
Protocol: (§4) Method: ICR male mice (SPF-grade, having a body weight of 17-20 g) were stochastically divided into seven groups according to the body weight, and the administration dosages can be found in Table 1. The animals in the groups of administration with a drug were administered by gavage for 22 consecutive days. The normal control group and the reserpine control group were administered by gavage with isovolumetric distilled water (0.2 ml/10 g body weight). 2 mg/kg body weight of reserpine was administered by intraperitoneal injection on the 22nd day. After 1 h, 2 h and 6 h of injection of reserpine, animals were placed on a bracket and under observation for 15 s to record the number of animals that closed the eyelids (wherein “−” represents open eyelids; “±” represents semi-open eyelids; and “+” represents close eyelids). […] At 2 h, 4 h, and 6 h after the administration of reserpine, animals were placed at the center of a piece of circular white paper with a diameter of 7.5 cm and under observation for 15 s to record the number of animals that still remained within the circle in 15 s.

[7] = tested on: mice of reserpine depression model; assay: Body temperature of mice treated with reserpine; details: for Body temperature, 6 h after making models: rectal temperature; for effect on fall in body temperature caused by reserpine (in words): P<0.01
Protocol: Method: ICR male mice (SPF-grade, having a body weight of 18-22 g) were stochastically divided into seven groups according to the body weight, and the dosages administrated are shown in Table 7. The animals in the groups of administration with a drug were administered for 22 consecutive days, and the basal body temperature (rectal temperature) of the animals was measured before administration on the 22nd day. […] The difference values of body temperature before and after administration and the difference values of their own body temperatures were calculated so as to conduct the statistical comparison by single factor analysis of variance (H. G Vogel & W. H. Vogel, Drug Discovery and Evaluation […]Guidance for Pharmacological Assays, translated by D U Guanhua et al, [M] Beijing: Science Press, 2001.409,412). The results can be found in Tables 7 and 8.

[8] = tested on: mice of reserpine depression model; assay: Eyelids closing (ptosis) caused by reserpine; details: for Number of animals which close the eyelids at 1 h after the administration, ± (semi-open eyelids) / Number of animals which close the eyelids at 1 h after the administration, − (open eyelids) / Number of animals which close the eyelids at 1 h after the administration, □ (close eyelids) / Number of animals which close the eyelids at 2 h after the administration, ± (semi-open eyelids) / Number of animals which close the eyelids at 2 h after the administration, − (open eyelids) / Number of animals which close the eyelids at 2 h after the administration, □ (close eyelids) / Number of animals which close the eyelids at 6 h after the administration, ± (semi-open eyelids) / Number of animals which close the eyelids at 6 h after the administration, − (open eyelids) / Number of animals which close the eyelids at 6 h after the administration, □ (close eyelids): gavage 22 days, reserpine 2 mg/kg ip, 15 animals; for effect on reserpine-induced ptosis (in words): P<0.01
Protocol: as §4

[9] = tested on: 5-HTP model mice; assay: Shaking-head behavior induced by 5-hydroxytryptophane (5-HTP) after pargyline; details: 14 mg/kg body weight; P<0.01
From the text: (IV) Effects of Capsules of the Present Invention on Shaking-Head Behavior Induced by 5-hydroxytryptophane (5-HTP) 1. Principle: according to the monoamine hypothesis on the occurrence of depression, the function of antidepressant lies in that it can enhance the functions of the noradrenergic and/or serotonergic nerve. A great variety of antidepressant may enhance the effect of 5-HT by blocking the reuptake of 5-HT. 5-HTP may be used as a precursor of 5-HT, and monoamine oxidase inhibitor—pargyline hydrochloride may inhibit the enzymatic degradation thereof. The characteristic symptom—shaking-head behavior is obvious on mice. The enhancement of shaking-head behavior of mice after administration of the test drug may be used as an evidence to the fact that the inhibition of 5-HT uptaking function is the anti-depression mechanism. 2. Method: ICR male mice (20±1 g) were stochastically divided into seven groups according to the body weight, and each group comprises 12 animals. The animals in the groups of administration with a drug were consecutively administered by gavage for 21 days. […] Except the normal control group, other groups were administered with 20 mg/kg body weight of 5-HTP by intraperitoneal injection 90 min after injection of pargyline; and the times of shaking-head behavior were recorded in the following 10 minutes.

[10] = 0.01 g/kg body weight per Table 10
[11] = 0.01 g/kg body weight, 5 animals
[12] = 0.014 g/kg body weight, 22 days, reserpine 2 mg/kg ip
[13] = 0.05 g/kg body weight per Table 10
[14] = 0.050 g/kg body weight, 8 animals
[15] = 0.050 g/kg body weight, 22 days, reserpine 2 mg/kg ip

## CC(=O)Oc1ccccc1C(=O)O [Aspirin]
[1]
  Pain threshold, 1 h after admi.: 18.27 ± 12.52 S
  Pain threshold, 3 h after admi.: 15.27 ± 2.57 S
  Pain threshold, 5 h after admi.: 16.09 ± 4.70 S
[2]
  Number of animals falling asleep, Falling asleep: 5
  Number of animals falling asleep, Not falling asleep: 6
[3]
  Stretching times: 12.00 ± 9.20

## CNCCC(Oc1ccc(C(F)(F)F)cc1)c1ccccc1 (centres unmarked) [Fluose fine hydrochloride, Fluoxetine Hydrochloride]
[4]; 0.01 g/kg body weight
  5-HT in the brain tissue of normal mice: 841.85 ng/g
  DA in the brain tissue of normal mice: 1432.52 ± 395.77 ng/g
  NA in the brain tissue of normal mice: 896.46 ng/g
[4]; [10]
  effect on 5-HT in brain tissue of normal mice (in words): notably increase the level of 5-HT
  effect on NA and DA in brain tissue of normal mice (in words): increase the level of NA and DA
[5]; [11]
  5-HT in the brain tissue of reserpine mice: 707.25 ± 115.94 ng/g
  DA in the brain tissue of reserpine mice: 1967.20 ± 562.57 ng/g
  NA in the brain tissue of reserpine mice: 1326.48 ± 670.50 ng/g
[6]; 0.014 g/kg body weight
  Number of animals that have excircle behaviors at 2 h, Excircle (+): 15
  Number of animals that have excircle behaviors at 2 h, Within circle (□): 0
  Number of animals that have excircle behaviors at 4 h, Excircle (+): 15
  Number of animals that have excircle behaviors at 4 h, Within circle (□): 0
  Number of animals that have excircle behaviors at 6 h, Excircle (+): 14
  Number of animals that have excircle behaviors at 6 h, Within circle (□): 1
[6]; 14 mg/kg body weight
  effect on “excircle” rate of reserpine mice (in words): notably increase the “excircle” rate
[7]; [12]
  Body temperature difference, 6 h after making models: 2.66 ± 1.11 □
  Body temperature difference, 24 h after making models: 2.27 ± 1.00 □
  Body temperature, 6 h after making models: 35.0 ± 0.87 □
[7]; 14 mg/kg body weight
  effect on fall in body temperature caused by reserpine (in words): notably antagonize the fall in body temperature
[8]; 0.014 g/kg body weight
  Number of animals which close the eyelids at 1 h after the administration, ± (semi-open eyelids): 8
  Number of animals which close the eyelids at 1 h after the administration, − (open eyelids): 7
  Number of animals which close the eyelids at 1 h after the administration, □ (close eyelids): 0
  Number of animals which close the eyelids at 2 h after the administration, ± (semi-open eyelids): 6
  Number of animals which close the eyelids at 2 h after the administration, − (open eyelids): 5
  Number of animals which close the eyelids at 2 h after the administration, □ (close eyelids): 4
  Number of animals which close the eyelids at 6 h after the administration, ± (semi-open eyelids): 11
  Number of animals which close the eyelids at 6 h after the administration, − (open eyelids): 2
  Number of animals which close the eyelids at 6 h after the administration, □ (close eyelids): 2
[8]; 14 mg/kg body weight
  effect on reserpine-induced ptosis (in words): antagonistic against reserpine-induced ptosis
[9]
  effect on 5-HTP-induced shaking-head behavior (in words): notably increase the times of 5-HTP-induced shaking-head behavior

## CN(C)CCC=C1c2ccccc2CCc2ccccc21 [amitriptyline, Amitriptyline Hydrochloride]
[4]; 0.05 g/kg body weight
  5-HT in the brain tissue of normal mice: 1015.17 ng/g
  DA in the brain tissue of normal mice: 1519.29 ± 373.72 ng/g
  NA in the brain tissue of normal mice: 803.54 ng/g
[4]; [13]
  effect on 5-HT in brain tissue of normal mice (in words): notably increase the level of 5-HT
  effect on NA and DA in brain tissue of normal mice (in words): increase the level of NA and DA
[5]; 50 mg/kg body weight
  effect on NA and DA in brain tissue of reserpine mice (in words): notably enhance the level of NA and DA
[5]; [14]
  5-HT in the brain tissue of reserpine mice: 557.57 ± 174.75 ng/g
  DA in the brain tissue of reserpine mice: 1806.61 ± 275.37 ng/g
  NA in the brain tissue of reserpine mice: 1023.46 ± 619.56 ng/g
[6]; 0.050 g/kg body weight
  Number of animals that have excircle behaviors at 2 h, Excircle (+): 15
  Number of animals that have excircle behaviors at 2 h, Within circle (□): 0
  Number of animals that have excircle behaviors at 4 h, Excircle (+): 13
  Number of animals that have excircle behaviors at 4 h, Within circle (□): 2
  Number of animals that have excircle behaviors at 6 h, Excircle (+): 13
  Number of animals that have excircle behaviors at 6 h, Within circle (□): 2
[6]; 50 mg/kg body weight
  effect on “excircle” rate of reserpine mice (in words): notably increase the “excircle” rate
[7]; [15]
  Body temperature difference, 6 h after making models: 2.38 ± 1.30 □
  Body temperature, 6 h after making models: 34.36 ± 1.12 □
[7]; 50 mg/kg body weight
  effect on fall in body temperature caused by reserpine (in words): notably antagonize the fall in body temperature
[8]; 0.050 g/kg body weight
  Number of animals which close the eyelids at 1 h after the administration, ± (semi-open eyelids): 10
  Number of animals which close the eyelids at 1 h after the administration, − (open eyelids): 4
  Number of animals which close the eyelids at 1 h after the administration, □ (close eyelids): 1
  Number of animals which close the eyelids at 2 h after the administration, ± (semi-open eyelids): 11
  Number of animals which close the eyelids at 2 h after the administration, − (open eyelids): 2
  Number of animals which close the eyelids at 2 h after the administration, □ (close eyelids): 2
  Number of animals which close the eyelids at 6 h after the administration, ± (semi-open eyelids): 12
  Number of animals which close the eyelids at 6 h after the administration, − (open eyelids): 0
  Number of animals which close the eyelids at 6 h after the administration, □ (close eyelids): 3
[8]; 50 mg/kg body weight
  effect on reserpine-induced ptosis (in words): antagonistic against reserpine-induced ptosis
